{"source": "patent US20230364057A1", "about": "“BACTERIAL DNA GYRASE INHIBITORS AND METHODS OF USE THEREOF” (THE FLORIDA INTERNATIONAL UNIVERSITY BOARD OF TRUSTEES, priority 2022, published 2023)", "key": {"[1]": {"tested_on": "CDF1 mice", "settings": "800 mg/kg, 5 days, results of NCI DTP; cited from earlier work"}, "[2]": {"tested_on": "Mtb", "test": "Mtb whole cell assay (% inhibition, MIC)", "format": "cell-based, Mycobacterium tuberculosis", "settings": "Mycobacterium tuberculosis"}, "[3]": {"test": "in vitro", "settings": "mouse"}, "[4]": {"tested_on": "S. aureus (ATCC 14775)", "test": "Minimum inhibitory concentration, broth microdilution", "settings": "Staphylococcus aureus"}, "[5]": {"biological_target": "Mtb DNA gyrase (Mycobacterium tuberculosis (strain ATCC 25618 / H37Rv), UniProt P9WG45+P9WG47)", "test": "Mtb DNA gyrase inhibition assay (gel-based)", "format": "biochemical", "method_in_brief": "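Supercoiling by 100 ng Mtb gyrase of 400 ng relaxed pAB1 in buffer with 1.75 mM ATP, pH 7.5, across inhibitor concentrations. Reactions ran 15 min at 37° C, stopped with SDS/EDTA. Products resolved on 1% agarose, ethidium bromide-stained; IC50 determined from gels.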"}, "[6]": {"test": "in vitro", "settings": "human"}, "[7]": {"tested_on": "NCI panel of 60 cancer cell lines", "settings": "up to 1 mM; results of NCI DTP; cited from earlier work"}, "[8]": {"tested_on": "E. coli (ATCC 25922)", "test": "Minimum inhibitory concentration, broth microdilution", "settings": "for MIC: Escherichia coli", "quoted_text": "(§2) Antibacterial minimum inhibitory concentrations (MICs) were obtained from three independent experiments using broth microdilution methods in 96-well plates according to Clinical and Laboratory Standards Institute guidelines. Cells were culture from singles colonies in MHIIB medium for 24 h at 37° C. in agitation (200 RPM). The cultures were then diluted using the same media to reach an OD600 of 0.1. Then, 50 µL of the diluted cultures were added to the plates holding 50 µL of serially diluted compounds in MHIIB. The plates were incubated at 37° C. for 20 h. The starting inoculum was fixated to 10^5 colony-forming units per ml."}, "[9]": {"biological_target": "T1, E. coli DNA gyrase (Escherichia coli (strain K12), UniProt P0AES4+P0AES6)", "test": "Agarose gel-based DNA gyrase inhibition assay", "format": "biochemical", "settings": "for IC50: gel-based, read-out: IC50 against E. coli DNA gyrase", "method": "100 ng of DNA gyrase was used to supercoil the rx pAB1 in the presence of different concentrations of a gyrase inhibitor. […] Samples were analyzed by electrophoresis in 1% w/v agarose gels followed by ethidium bromide staining and photographed under UV light."}, "[10]": {"biological_target": "Mtb gyrase (Mycobacterium tuberculosis (strain ATCC 25618 / H37Rv), UniProt P9WG45+P9WG47)", "test": "Mtb gyrase mediated DNA cleavage assay", "format": "biochemical", "settings": "pBR322, 50-100 µM", "method": "The IC50 against E. coli (A) and Mtb (C) gyrase were determined using the gel-based gyrase inhibition assays. The gyrase mediated DNA cleavage assays (B and D) were performed using pBR322. (A) 229 inhibits E. coli gyrase. Lane 1, rx pAB1. […] Lane 1, rx pAB1. […] 100 µM of CPDs were used. Symbols rx, nk, In, and sc represent relaxed, nicked, linear, and supercoiled DNA, respectively."}, "[11]": {"biological_target": "T1, E. coli DNA gyrase", "test": "biochemical", "format": "biochemical"}, "[12]": {"biological_target": "T1, E. coli DNA gyrase", "test": "DNA gyrase mediated DNA cleavage assay", "format": "biochemical", "settings": "pBR322", "method_in_brief": "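Supercoiled pBR322 (250 ng) incubated with 50 nM E. coli gyrase, 1.75 mM ATP and 200 µM compound in Tris-HCl/KCl/MgCl2/DTT/BSA/glycerol buffer, 37° C, 15 min. Complexes trapped with SDS and proteinase K (37° C, 1 h); cleavage products resolved on ethidium-stained agarose gel.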"}, "[13]": {"tested_on": "M. abscessus", "test": "MIC against M. abscessus", "format": "cell-based, Mycobacterium abscessus", "settings": "Mycobacteroides abscessus"}, "[14]": {"biological_target": "T2, E. coli DNA topoisomerase IV (Escherichia coli (strain K12), UniProt P0AFI2+P20083)", "T2 sequence (P0AFI2 whole entry, looked up)": "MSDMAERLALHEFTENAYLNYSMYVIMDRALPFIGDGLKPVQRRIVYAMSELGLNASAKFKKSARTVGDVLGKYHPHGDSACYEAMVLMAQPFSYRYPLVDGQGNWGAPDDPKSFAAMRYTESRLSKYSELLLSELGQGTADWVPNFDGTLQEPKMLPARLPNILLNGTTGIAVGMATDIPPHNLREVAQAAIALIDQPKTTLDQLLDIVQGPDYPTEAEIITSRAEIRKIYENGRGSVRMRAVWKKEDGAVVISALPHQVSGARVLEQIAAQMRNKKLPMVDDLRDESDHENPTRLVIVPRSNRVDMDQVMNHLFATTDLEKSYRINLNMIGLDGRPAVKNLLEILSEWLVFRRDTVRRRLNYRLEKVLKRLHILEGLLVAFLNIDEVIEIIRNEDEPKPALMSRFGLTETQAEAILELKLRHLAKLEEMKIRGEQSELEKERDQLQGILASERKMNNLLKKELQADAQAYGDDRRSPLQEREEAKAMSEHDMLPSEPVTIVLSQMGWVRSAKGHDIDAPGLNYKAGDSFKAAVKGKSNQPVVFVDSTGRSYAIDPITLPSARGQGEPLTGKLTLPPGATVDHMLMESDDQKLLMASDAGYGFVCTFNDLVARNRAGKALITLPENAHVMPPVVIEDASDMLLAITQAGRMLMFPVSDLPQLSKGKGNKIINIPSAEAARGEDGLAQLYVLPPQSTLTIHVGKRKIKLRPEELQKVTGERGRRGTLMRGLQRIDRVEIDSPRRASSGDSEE", "T2 sequence (P20083 whole entry, looked up)": "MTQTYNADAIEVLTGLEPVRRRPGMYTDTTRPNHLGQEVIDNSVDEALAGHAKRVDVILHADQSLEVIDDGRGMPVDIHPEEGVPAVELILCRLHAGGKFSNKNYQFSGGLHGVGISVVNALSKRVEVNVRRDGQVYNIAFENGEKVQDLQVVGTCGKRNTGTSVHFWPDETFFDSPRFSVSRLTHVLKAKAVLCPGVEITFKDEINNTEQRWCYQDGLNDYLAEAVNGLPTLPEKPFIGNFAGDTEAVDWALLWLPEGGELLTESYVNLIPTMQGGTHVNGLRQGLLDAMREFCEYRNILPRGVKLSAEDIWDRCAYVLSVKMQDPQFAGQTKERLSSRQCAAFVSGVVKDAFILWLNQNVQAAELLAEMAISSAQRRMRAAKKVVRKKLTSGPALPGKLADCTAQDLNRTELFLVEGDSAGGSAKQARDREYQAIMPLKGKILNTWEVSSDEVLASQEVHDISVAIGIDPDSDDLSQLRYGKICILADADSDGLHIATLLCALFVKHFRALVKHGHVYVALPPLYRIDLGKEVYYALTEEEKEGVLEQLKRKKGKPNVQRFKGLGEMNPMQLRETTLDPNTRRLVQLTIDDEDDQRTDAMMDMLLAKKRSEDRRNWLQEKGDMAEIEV", "test": "SDFQ-based DNA relaxation assay with E. coli DNA topoisomerase IV", "format": "biochemical", "method": "(§1) Relaxation assays by E. coli DNA topoisomerase IV and the ATPase assays were performed. […] Lane 1 is supercoiled plasmid pAB1. […] The supercoiled, fluorescently-labeled plasmid pAB1_FL905 was used."}, "[15]": {"biological_target": "T2, E. coli DNA topoisomerase IV", "test": "E. coli DNA topoisomerase IV relaxation assay (gel-based)", "format": "biochemical", "method": "as §1"}, "[16]": {"biological_target": "T1, E. coli DNA gyrase", "test": "E. coli DNA gyrase ATPase assay", "format": "biochemical", "method": "E. coli DNA gyrase ATPase assays were performed in 60 µL of 1 ×gyrase ATPase buffer (10 mM Tris.HCl (pH 7.5), 0.2 mM EDTA, 1 mM magnesium chloride, 1 mM DTT, and 2% (w/v) glycerol) containing 50 nM E. coli DNA gyrase, 200 ng rx pAB1, 0.8 mM Phosphoenol pyruvate, 1.2 units of Pyruvate kinase, 1.7 units of lactate dehydrogenase, and 0.4 mM of NADH at 37° C. After the reaction mixtures are incubated on ice for 5 minutes, 2 mM of ATP is added to initiate the reaction. Absorbance at OD340nm is monitored for up to 30 minutes at 37° C. in a spectrophotometer."}, "[17]": {"tested_on": "E. coli imp", "test": "microbe, parasite or virus in culture", "settings": "Escherichia coli, read-out: MIC E. coli imp BAS3023", "quoted_text": "as §2"}, "[18]": {"biological_target": "E. coli topoisomerase IV (Escherichia coli (strain K12), UniProt P0AFI2+P20083)", "sequence (P0AFI2 whole entry, looked up)": "as the sequence (P0AFI2 whole entry, looked up) above", "sequence (P20083 whole entry, looked up)": "as the sequence (P20083 whole entry, looked up) above", "test": "E. coli topoisomerase IV decatenation", "format": "biochemical", "settings": "read-out: IC50 against E. coli topoisomerase IV"}, "[19]": {"biological_target": "T2, E. coli DNA topoisomerase IV", "test": "ATP hydrolysis activity of E. coli DNA topoisomerase IV", "format": "biochemical", "settings": "100 µM", "method": "as §1"}, "[20]": {"biological_target": "T1, E. coli DNA gyrase", "test": "SDFQ-based DNA gyrase inhibition assay", "format": "biochemical", "settings": "Table 8; read-out: IC50 Gyrase SDFQ", "method": "100 ng of DNA gyrase was used to supercoil the rx pAB1_FL905 in the presence of different concentrations of a gyrase inhibitor. […] The IC50 values were estimated by nonlinear fitting of the following equation: […]\nwhere F is the fluorescence intensity at the x concentration of an min inhibitor. Fmax and Fmin are the maximum and minimum fluorescence of the DNA sample, respectively. P is a slope parameter."}, "[21]": {"tested_on": "B. subtilis (ATCC 6633)", "test": "Minimum inhibitory concentration, broth microdilution", "settings": "Bacillus subtilis, ATCC6633, read-out: MIC B. subtilis ATCC 6633", "quoted_text": "as §2"}, "[22]": {"biological_target": "E. coli DNA topoisomerase I (Escherichia coli (strain K12), UniProt P06612)", "sequence (P06612 whole entry, looked up)": "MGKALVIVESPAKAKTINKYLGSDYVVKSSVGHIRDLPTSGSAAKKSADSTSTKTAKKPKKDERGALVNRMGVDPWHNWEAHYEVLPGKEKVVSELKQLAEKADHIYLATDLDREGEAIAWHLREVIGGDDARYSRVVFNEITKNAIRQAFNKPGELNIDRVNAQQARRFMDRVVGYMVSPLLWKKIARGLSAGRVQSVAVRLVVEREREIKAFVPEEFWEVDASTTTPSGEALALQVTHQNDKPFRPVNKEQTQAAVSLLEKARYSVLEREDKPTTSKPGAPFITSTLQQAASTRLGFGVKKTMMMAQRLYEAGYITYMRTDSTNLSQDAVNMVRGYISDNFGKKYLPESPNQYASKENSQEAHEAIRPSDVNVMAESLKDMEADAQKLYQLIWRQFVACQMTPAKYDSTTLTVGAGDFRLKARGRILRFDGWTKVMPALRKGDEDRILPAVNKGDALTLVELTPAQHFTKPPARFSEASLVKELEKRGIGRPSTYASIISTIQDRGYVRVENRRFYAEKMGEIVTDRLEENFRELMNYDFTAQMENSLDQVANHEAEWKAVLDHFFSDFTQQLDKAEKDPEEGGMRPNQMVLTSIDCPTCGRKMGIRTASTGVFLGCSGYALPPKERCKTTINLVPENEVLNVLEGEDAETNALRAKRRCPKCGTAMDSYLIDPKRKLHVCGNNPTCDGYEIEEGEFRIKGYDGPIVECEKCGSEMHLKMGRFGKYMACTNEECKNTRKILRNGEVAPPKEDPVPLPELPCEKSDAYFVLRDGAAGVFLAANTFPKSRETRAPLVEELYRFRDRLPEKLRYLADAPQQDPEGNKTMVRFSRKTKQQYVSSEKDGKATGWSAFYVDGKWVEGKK", "test": "E. coli DNA topoisomerase I inhibition", "format": "biochemical", "settings": "gallates at 100 µM"}, "[23]": {"biological_target": "human DNA topoisomerase I (Homo sapiens (Human), UniProt P11387)", "sequence (P11387 whole entry)": "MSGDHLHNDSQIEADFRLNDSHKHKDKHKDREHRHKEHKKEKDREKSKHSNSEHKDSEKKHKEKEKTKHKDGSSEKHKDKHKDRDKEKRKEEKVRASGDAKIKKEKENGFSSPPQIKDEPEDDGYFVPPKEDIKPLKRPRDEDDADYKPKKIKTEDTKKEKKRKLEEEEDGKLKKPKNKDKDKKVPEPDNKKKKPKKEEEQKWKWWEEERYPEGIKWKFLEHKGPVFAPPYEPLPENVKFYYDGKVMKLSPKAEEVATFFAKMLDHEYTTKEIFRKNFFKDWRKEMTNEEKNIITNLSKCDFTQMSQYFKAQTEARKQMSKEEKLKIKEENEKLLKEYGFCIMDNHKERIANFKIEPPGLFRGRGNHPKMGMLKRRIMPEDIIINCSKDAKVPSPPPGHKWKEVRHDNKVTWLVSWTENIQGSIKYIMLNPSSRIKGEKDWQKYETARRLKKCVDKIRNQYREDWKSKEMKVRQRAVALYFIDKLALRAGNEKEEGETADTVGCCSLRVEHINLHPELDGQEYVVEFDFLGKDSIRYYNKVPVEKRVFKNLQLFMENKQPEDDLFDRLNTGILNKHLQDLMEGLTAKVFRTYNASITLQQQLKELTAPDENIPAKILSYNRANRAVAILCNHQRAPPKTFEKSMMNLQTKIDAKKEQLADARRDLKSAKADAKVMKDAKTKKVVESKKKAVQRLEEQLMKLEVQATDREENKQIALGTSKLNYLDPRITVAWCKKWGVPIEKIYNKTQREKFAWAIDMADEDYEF", "test": "Human DNA topoisomerase I inhibition", "format": "biochemical", "settings": "gallates at 100 µM"}, "[24]": {"tested_on": "MRSA", "test": "Minimum inhibitory concentration, broth microdilution", "settings": "Staphylococcus aureus"}, "[25]": {"biological_target": "human DNA topoisomerase IIα (Homo sapiens (Human), UniProt P11388)", "sequence (P11388 whole entry)": "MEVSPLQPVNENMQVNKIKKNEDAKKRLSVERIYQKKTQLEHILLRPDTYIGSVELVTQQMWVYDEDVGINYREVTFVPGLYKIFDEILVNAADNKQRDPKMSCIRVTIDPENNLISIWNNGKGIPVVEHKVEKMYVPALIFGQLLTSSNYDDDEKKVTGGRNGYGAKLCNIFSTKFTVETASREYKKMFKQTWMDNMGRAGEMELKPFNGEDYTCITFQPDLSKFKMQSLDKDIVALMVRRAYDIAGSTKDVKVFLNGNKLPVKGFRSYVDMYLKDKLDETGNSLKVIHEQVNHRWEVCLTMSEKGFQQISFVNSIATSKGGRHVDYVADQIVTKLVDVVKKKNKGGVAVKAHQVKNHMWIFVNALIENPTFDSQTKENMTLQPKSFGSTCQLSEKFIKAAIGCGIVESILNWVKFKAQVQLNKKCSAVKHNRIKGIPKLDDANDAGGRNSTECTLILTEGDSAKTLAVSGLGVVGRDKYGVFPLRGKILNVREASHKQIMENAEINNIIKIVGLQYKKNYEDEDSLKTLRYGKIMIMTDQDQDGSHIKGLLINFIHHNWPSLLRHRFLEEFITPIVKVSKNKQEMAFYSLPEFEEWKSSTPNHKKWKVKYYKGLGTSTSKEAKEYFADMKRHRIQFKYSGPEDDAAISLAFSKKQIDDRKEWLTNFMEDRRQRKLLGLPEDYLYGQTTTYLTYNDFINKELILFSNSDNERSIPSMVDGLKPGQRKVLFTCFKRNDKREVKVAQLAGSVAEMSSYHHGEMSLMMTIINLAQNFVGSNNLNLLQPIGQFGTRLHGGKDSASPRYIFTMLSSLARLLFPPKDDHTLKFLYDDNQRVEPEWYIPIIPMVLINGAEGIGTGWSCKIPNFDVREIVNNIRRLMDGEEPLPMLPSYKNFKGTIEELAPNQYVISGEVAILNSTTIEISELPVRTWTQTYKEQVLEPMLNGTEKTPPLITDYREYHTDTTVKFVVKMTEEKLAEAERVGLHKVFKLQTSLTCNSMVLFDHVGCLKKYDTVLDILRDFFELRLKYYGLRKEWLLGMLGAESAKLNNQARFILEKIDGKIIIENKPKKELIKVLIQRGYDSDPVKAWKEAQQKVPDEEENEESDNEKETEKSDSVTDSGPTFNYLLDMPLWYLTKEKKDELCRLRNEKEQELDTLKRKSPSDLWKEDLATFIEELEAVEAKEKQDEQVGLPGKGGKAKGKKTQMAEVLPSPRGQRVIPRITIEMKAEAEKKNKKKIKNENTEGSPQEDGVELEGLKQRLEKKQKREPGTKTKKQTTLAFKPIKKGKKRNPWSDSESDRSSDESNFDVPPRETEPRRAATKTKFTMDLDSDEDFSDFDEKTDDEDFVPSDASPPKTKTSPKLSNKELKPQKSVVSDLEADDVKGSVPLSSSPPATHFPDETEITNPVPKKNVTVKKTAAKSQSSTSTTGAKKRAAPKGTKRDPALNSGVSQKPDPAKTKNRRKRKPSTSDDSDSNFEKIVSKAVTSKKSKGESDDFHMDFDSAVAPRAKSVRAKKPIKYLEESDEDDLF", "test": "Agarose gel-based inhibition assay against human DNA topoisomerase IIα", "format": "biochemical", "settings": "gallates at 100 µM"}}, "note": "Values joined by “and” are separate entries in the source; they are usually repeats but may differ in a detail not shown here. Identical values can stand only once. “Also recorded” adds a separate entry of the source. Like-named read-outs stand apart in the source and are kept apart here.", "data": [{"smiles": "C[n+]1c(-c2ccc(C=NNC(=O)c3ccc(C(=O)NN=Cc4ccc(-c5cn6ccccc6[n+]5C)cc4)cc3)cc2)cn2ccccc21", "note": "[Compound 229]", "values": [{"measurement": "survival", "setting": "[1]", "result": 100, "unit": "%"}, {"measurement": "MIC", "setting": "[2]", "result": 7.1, "unit": "µM"}, {"measurement": "IC50", "setting": "[3]", "result": "> 200", "unit": "µM"}, {"measurement": "MIC", "setting": "[4]; ATCC14775, read-out: MIC (µM) Sa", "result": "> 200", "unit": "µM"}, {"measurement": "inhibition of Mtb DNA gyrase activities", "setting": "[5]", "result": "potently inhibits"}, {"measurement": "IC50", "setting": "[5]; Table 10, read-out: IC50 (µM) Mtb gyrase", "result": "~2.6 µM and 2.6 µM"}, {"measurement": "IC50", "setting": "[6]", "result": "> 200", "unit": "µM"}, {"measurement": "cytotoxicity against the NCI panel of 60 cancer cell lines", "setting": "[7]", "result": "no cytotoxicity"}, {"measurement": "MIC (µM) Ec", "setting": "[8]; E. coli strain ATCC25922", "result": 12.5, "unit": "µM"}, {"measurement": "MIC", "setting": "[8]; ATCC25922, read-out: MIC (µM) Ec, E. coli strain ATCC25922", "result": "6.25 to 12.5", "unit": "µM"}, {"measurement": "inhibition of E. coli DNA gyrase activities", "setting": "[9]; 50 µM of compounds", "result": "completely inhibited"}, {"measurement": "inhibition of E. coli DNA gyrase activities", "setting": "[9]; 200 µM of compounds", "result": "completely inhibited"}, {"measurement": "IC50", "setting": "[9]", "result": 16, "unit": "µM"}, {"measurement": "Mtb gyrase-mediated DNA nicking and double-stranded breaks", "setting": "[10]", "result": "significantly enhances the gyrase-mediated DNA nicking and double-stranded breaks"}, {"measurement": "inhibition of E. coli DNA gyrase activities", "setting": "[11]", "result": "inhibits"}, {"measurement": "E. coli DNA gyrase-mediated DNA breaks and nicking", "setting": "[12]", "result": "enhances the E. coli gyrase-mediated DNA nicking; also recorded: induces DNA nicking"}, {"measurement": "MIC", "setting": "[13]", "result": 10.1, "unit": "µM"}]}, {"smiles": "O=C(O)c1cc(O)c(O)c(OC(=O)c2cc(O)c(O)c(O)c2)c1", "note": "[Digallic acid, digallic acid]", "values": [{"measurement": "IC50", "setting": "[14]", "result": 7.3, "unit": "µM"}, {"measurement": "IC50", "setting": "[15]; IC50 Topoisomerase IV Gel-based, Table 8", "result": 8, "unit": "µM"}, {"measurement": "IC50", "setting": "[15]; IC50 against E. coli DNA topoisomerase IV, relaxation", "result": "~8", "unit": "µM"}, {"measurement": "inhibition of the ATPase activities of E. coli DNA gyrase", "setting": "[16]; AB-MECA and gallates at 100 µM", "result": "competitive inhibitor"}, {"measurement": "Ki", "setting": "[16]; ATPase, ATP competitive, read-out: Ki", "result": 0.347, "unit": "µM"}, {"measurement": "MIC", "setting": "[17]", "result": "> 200", "unit": "µM"}, {"measurement": "MIC", "setting": "[4]; ATCC14775, read-out: MIC S. aureus ATCC 14775", "result": "64 µg/mL and 200 µM"}, {"measurement": "IC50", "setting": "[18]", "result": "~4", "unit": "µM"}, {"measurement": "inhibition of the ATPase activities of bacterial DNA topoisomerase IV", "setting": "[19]", "result": "inhibit the ATPase activities"}, {"measurement": "IC50", "setting": "[20]", "result": 1.9, "unit": "µM"}, {"measurement": "MIC", "setting": "[21]", "result": "> 64 µg/mL and > 200 µM"}, {"measurement": "MIC", "setting": "[8]; ATCC25922, read-out: MIC E coli ATCC 25922, Table 9", "result": "> 200", "unit": "µM"}, {"measurement": "inhibition of E. coli DNA topoisomerase I", "setting": "[22]", "result": "do not inhibit; also recorded: did not strongly inhibit"}, {"measurement": "inhibition of human DNA topoisomerase I", "setting": "[23]", "result": "do not inhibit; also recorded: did not strongly inhibit"}, {"measurement": "IC50", "setting": "[9]", "result": 2, "unit": "µM"}, {"measurement": "E. coli DNA gyrase-mediated DNA breaks and nicking", "setting": "[12]", "result": "not bacterial DNA gyrase poisons"}, {"measurement": "MIC", "setting": "[24]; ATCC33591 / MRSA, read-out: MIC MRSA ATCC 33591", "result": 200, "unit": "µM"}, {"measurement": "MIC", "setting": "[24]; ATCCBAA44 / MRSA, read-out: MIC S. aureus (MRSA) ATCC BAA44", "result": 64, "unit": "µg/mL"}, {"measurement": "inhibition of human DNA topoisomerase IIα", "setting": "[25]", "result": "do not inhibit; also recorded: did not strongly inhibit"}]}]}
